Experimental data: PubChem BioAssay AID1963851 (Molecular Pharmacology Branch, DTP, NCI, 2024)

Test system: 188146-221-R-J1-PDC complex spheroid viability
Experiment: Anticancer human tumor 188146-221-R-J1-PDC patient-derived colon adenocarcinoma cell line growth inhibition [POLQ]
Conditions: for IC50: curve of first compound; for viability, T/C: stronger effect = lower value; active = viability on the fitted dose curve at most 10% of control; inactive = the rest
In short: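 PDC + HUVEC + MSC complex spheroids; POLQ inhibitors ± partner drugs; top conc. at/near clinical Cmax, else 10 microM (SN-38 1 microM), half-log dilutions; 37 degrees C, 5% CO2.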

[1] = second compound 0.0316 µM, first compound 0.0316 µM
[2] = second compound 0.0316 µM, first compound 0.1 µM
[3] = second compound 0.0316 µM, first compound 0.316 µM
[4] = second compound 0.0316 µM, first compound 1 µM
[5] = second compound 0.0316 µM, first compound 3.16 µM
[6] = second compound 0.0316 µM, first compound 10 µM
[7] = second compound 0.1 µM, first compound 0.0316 µM
[8] = second compound 0.1 µM, first compound 0.1 µM
[9] = second compound 0.1 µM, first compound 0.316 µM
[10] = second compound 0.1 µM, first compound 1 µM
[11] = second compound 0.1 µM, first compound 3.16 µM
[12] = second compound 0.1 µM, first compound 10 µM
[13] = second compound 0.316 µM, first compound 0.0316 µM
[14] = second compound 0.316 µM, first compound 0.1 µM
[15] = second compound 0.316 µM, first compound 0.316 µM
[16] = second compound 0.316 µM, first compound 1 µM
[17] = second compound 0.316 µM, first compound 3.16 µM
[18] = second compound 0.316 µM, first compound 10 µM
[19] = second compound 1 µM, first compound 0.0316 µM
[20] = second compound 1 µM, first compound 0.1 µM
[21] = second compound 1 µM, first compound 0.316 µM
[22] = second compound 1 µM, first compound 1 µM
[23] = second compound 1 µM, first compound 3.16 µM
[24] = second compound 1 µM, first compound 10 µM
[25] = second compound 3.16 µM, first compound 0.0316 µM
[26] = second compound 3.16 µM, first compound 0.1 µM
[27] = second compound 3.16 µM, first compound 0.316 µM
[28] = second compound 3.16 µM, first compound 1 µM
[29] = second compound 3.16 µM, first compound 3.16 µM
[30] = second compound 3.16 µM, first compound 10 µM
[31] = second compound 10 µM, first compound 0.0316 µM
[32] = second compound 10 µM, first compound 0.1 µM
[33] = second compound 10 µM, first compound 0.316 µM
[34] = second compound 10 µM, first compound 1 µM
[35] = second compound 10 µM, first compound 3.16 µM
[36] = second compound 10 µM, first compound 10 µM
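Also: spheroids exposed to compounds for seven days.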
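For viability, T/C in this document: 100% = DMSO vehicle control viability.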

CC1COCCN1c1cc(C2(S(C)(=N)=O)CC2)nc(-c2ccnc3[nH]ccc23)n1 (stereo not drawn) + COC1C(OC(N)=O)C(O)C(Oc2ccc3c(O)c(NC(=O)c4ccc(O)c(CC=C(C)C)c4)c(=O)oc3c2C)OC1(C)C
4.53 µM: IC50 (second compound 1 µM)
4.04 µM: IC50 (second compound 0.1 µM)
3.45 µM: IC50 (second compound 3.16 µM)
4.2 µM: IC50 (second compound 0.0316 µM)
4.05 µM: IC50 (second compound 0.316 µM)
3.16 µM: IC50 (second compound 10 µM)
inactive: viability, T/C [1] 102% | viability, T/C [2] 95.8% | viability, T/C [3] 98.7% | viability, T/C [4] 94.2% | viability, T/C [5] 58.6% | viability, T/C [6] 23.6% | viability, T/C [7] 114% | viability, T/C [8] 100% | viability, T/C [9] 90.5% | viability, T/C [10] 72.5% | viability, T/C [11] 62.2% | viability, T/C [12] 26.8% | viability, T/C [13] 96.2% | viability, T/C [14] 97.3% | viability, T/C [15] 94.7% | viability, T/C [16] 84.8% | viability, T/C [17] 56.4% | viability, T/C [18] 27% | viability, T/C [19] 97.1% | viability, T/C [20] 104% | viability, T/C [21] 88.6% | viability, T/C [22] 87.1% | viability, T/C [23] 61.2% | viability, T/C [24] 23.9% | viability, T/C [25] 101% | viability, T/C [26] 100% | viability, T/C [27] 84.2% | viability, T/C [28] 69.4% | viability, T/C [29] 54% | viability, T/C [30] 26.8% | viability, T/C [31] 102% | viability, T/C [32] 88.8% | viability, T/C [33] 103% | viability, T/C [34] 74.5% | viability, T/C [35] 51.9% | viability, T/C [36] 24%

CCCS(=O)(=O)Nc1ccc(F)c(C(=O)c2c[nH]c3ncc(-c4ccc(Cl)cc4)cc23)c1F + COC1C(OC(N)=O)C(O)C(Oc2ccc3c(O)c(NC(=O)c4ccc(O)c(CC=C(C)C)c4)c(=O)oc3c2C)OC1(C)C
7.78 µM: IC50 (second compound 3.16 µM)
5.25 µM: IC50 (second compound 10 µM)
inactive: viability, T/C [1] 106% | viability, T/C [2] 92% | viability, T/C [3] 77.3% | viability, T/C [4] 76.3% | viability, T/C [5] 79.8% | viability, T/C [6] 27.5% | viability, T/C [7] 110% | viability, T/C [8] 102% | viability, T/C [9] 89% | viability, T/C [10] 89.8% | viability, T/C [11] 76.9% | viability, T/C [12] 29.7% | viability, T/C [13] 100% | viability, T/C [14] 89.5% | viability, T/C [15] 94.5% | viability, T/C [16] 79.7% | viability, T/C [17] 65.3% | viability, T/C [18] 26.8% | viability, T/C [19] 100% | viability, T/C [20] 96.2% | viability, T/C [21] 85.4% | viability, T/C [22] 84.7% | viability, T/C [23] 75.1% | viability, T/C [24] 27.4% | viability, T/C [25] 102% | viability, T/C [26] 103% | viability, T/C [27] 92.2% | viability, T/C [28] 72.3% | viability, T/C [29] 80.9% | viability, T/C [30] 41.2% | viability, T/C [31] 102% | viability, T/C [32] 90.2% | viability, T/C [33] 96.3% | viability, T/C [34] 78.2% | viability, T/C [35] 72.7% | viability, T/C [36] 26%
5.54 µM: IC50 (second compound 0.0316 µM)
5.87 µM: IC50 (second compound 0.1 µM)
4.88 µM: IC50 (second compound 0.316 µM)
5.62 µM: IC50 (second compound 1 µM)

COc1ccc([C@@H](O)c2cc(-c3ncnc4cc(N5CCOCC5)ccc34)c(F)cc2Cl)nn1 + COC1C(OC(N)=O)C(O)C(Oc2ccc3c(O)c(NC(=O)c4ccc(O)c(CC=C(C)C)c4)c(=O)oc3c2C)OC1(C)C
5.01 µM: IC50 (second compound 1 µM)
5.75 µM: IC50 (second compound 3.16 µM)
5.77 µM: IC50 (second compound 0.1 µM)
4.27 µM: IC50 (second compound 0.316 µM)
5.36 µM: IC50 (second compound 10 µM)
inactive: viability, T/C [1] 105% | viability, T/C [2] 95.4% | viability, T/C [3] 81.4% | viability, T/C [4] 76.8% | viability, T/C [5] 61.2% | viability, T/C [6] 27.1% | viability, T/C [7] 92.8% | viability, T/C [8] 89.3% | viability, T/C [9] 96.2% | viability, T/C [10] 84.6% | viability, T/C [11] 65.3% | viability, T/C [12] 36.3% | viability, T/C [13] 107% | viability, T/C [14] 91.3% | viability, T/C [15] 102% | viability, T/C [16] 83.4% | viability, T/C [17] 58.7% | viability, T/C [18] 26.2% | viability, T/C [19] 96% | viability, T/C [20] 96.9% | viability, T/C [21] 97.5% | viability, T/C [22] 83.2% | viability, T/C [23] 65.3% | viability, T/C [24] 28.1% | viability, T/C [25] 108% | viability, T/C [26] 95.8% | viability, T/C [27] 97.8% | viability, T/C [28] 84.3% | viability, T/C [29] 72.1% | viability, T/C [30] 31.4% | viability, T/C [31] 108% | viability, T/C [32] 84.5% | viability, T/C [33] 113% | viability, T/C [34] 63.4% | viability, T/C [35] 75.7% | viability, T/C [36] 30%
4.19 µM: IC50 (second compound 0.0316 µM)

Cn1ncnc1[C@H]1c2n[nH]c(=O)c3cc(F)cc(c23)N[C@@H]1c1ccc(F)cc1 + COC1C(OC(N)=O)C(O)C(Oc2ccc3c(O)c(NC(=O)c4ccc(O)c(CC=C(C)C)c4)c(=O)oc3c2C)OC1(C)C
> 0.1 µM: IC50 (second compound 0.0316 µM) | IC50 (second compound 0.1 µM) | IC50 (second compound 0.316 µM) | IC50 (second compound 1 µM) | IC50 (second compound 3.16 µM) | IC50 (second compound 10 µM)
inactive: viability, T/C (second compound 0.0316 µM, first compound 0.000316 µM) 109% | viability, T/C (second compound 0.0316 µM, first compound 0.001 µM) 93.7% | viability, T/C (second compound 0.0316 µM, first compound 0.00316 µM) 104% | viability, T/C (second compound 0.0316 µM, first compound 0.01 µM) 113% | viability, T/C [1] 97.9% | viability, T/C [2] 88.4% | viability, T/C (second compound 0.1 µM, first compound 0.000316 µM) 108% | viability, T/C (second compound 0.1 µM, first compound 0.001 µM) 108% | viability, T/C (second compound 0.1 µM, first compound 0.00316 µM) 108% | viability, T/C (second compound 0.1 µM, first compound 0.01 µM) 101% | viability, T/C [7] 99.5% | viability, T/C [8] 86.8% | viability, T/C (second compound 0.316 µM, first compound 0.000316 µM) 114% | viability, T/C (second compound 0.316 µM, first compound 0.001 µM) 102% | viability, T/C (second compound 0.316 µM, first compound 0.00316 µM) 98.2% | viability, T/C (second compound 0.316 µM, first compound 0.01 µM) 93.8% | viability, T/C [13] 98.8% | viability, T/C [14] 88.8% | viability, T/C (second compound 1 µM, first compound 0.000316 µM) 107% | viability, T/C (second compound 1 µM, first compound 0.001 µM) 113% | viability, T/C (second compound 1 µM, first compound 0.00316 µM) 108% | viability, T/C (second compound 1 µM, first compound 0.01 µM) 107% | viability, T/C [19] 98.2% | viability, T/C [20] 101% | viability, T/C (second compound 3.16 µM, first compound 0.000316 µM) 108% | viability, T/C (second compound 3.16 µM, first compound 0.001 µM) 103% | viability, T/C (second compound 3.16 µM, first compound 0.00316 µM) 106% | viability, T/C (second compound 3.16 µM, first compound 0.01 µM) 97.5% | viability, T/C [25] 110% | viability, T/C [26] 102% | viability, T/C (second compound 10 µM, first compound 0.000316 µM) 114% | viability, T/C (second compound 10 µM, first compound 0.001 µM) 104% | viability, T/C (second compound 10 µM, first compound 0.00316 µM) 111% | viability, T/C (second compound 10 µM, first compound 0.01 µM) 104% | viability, T/C [31] 103% | viability, T/C [32] 105%
